Tests used:
[1] = test system: human-derived Caco-2 cells; assay: In vitro transwell screening in Caco-2 cells, barrier disrupted by Clostridium difficile toxin (TEER and FITC-dextran permeability); format: cell-based; conditions: for TEER, indole metabolites (FIG. 22A): applied to the lumen, TOX; for integrated TEER (area under the curve, FIG. 21B): luminal, C. difficile toxin
Source text: FIG. 20A-20B. In vitro screening of metabolites effective against leaky gut. FIG. 20A, Diagram of the in vitro transwell method used to evaluate efficacy of metabolites in protecting the leaky gut in human-derived Caco-2 cells. The luminal compartment represents the food side, and the basolateral the blood side. FIG. 20B, Transepithelial electrical resistance (TEER) measurements, and FITC-dextran measurements, evaluate the leakiness of the tight junction that regulates the pore (top) and leak (bottom) pathways of the gut. Ions (red), small molecules (blue), FITC-dextran (orange).
FIG. 21A-21D. Efficacy of tryptophan and vitamin B3 metabolites in protecting the gut barrier in vitro. FIG. 21A, TEER measurements of metabolites placed on luminal side of transwells for 72 hours. After 48 hours, the barrier was disrupted by the toxin of clostrium difficile (Cdiff). FIG. 21B, Integrated results of area under the curve using data from FIG. 21A. FIG. 21C, FITC-dextran permeability analysis of metabolites applied luminally. FIG. 21D, FITC-dextran permeability analysis of metabolites applied basolaterally.
FIG. 22A-22B. Efficacy of microbiota-derived indole metabolites in protecting the gut barrier. FIG. 22A, Integrated results of TEER measurements of metabolites placed on luminal side of transwells for 72 hours. After 48 hours, the barrier was disrupted by the toxin of clostrium difficile (Cdiff) FIG. 22B, FITC-dextran permeability analysis of metabolites from FIG. 22A applied luminally.
To perform in vitro screening of the metabolites effective against leaky gut, an in vitro transwell method was used. (FIG. 20A) The efficacy of these metabolites in protecting the leaky gut was analyzed in human-derived Caco-2 cells. Transepithelial electrical resistance (TEER) measurements evaluates the leakiness of the tight junction that regulates the pore (FIG. 20B, top) and leak (FIG. 20B, bottom) pathways of the gut. The higher the TEER, the less permeable the junction is to the movement of ions and small molecules. FITC-dextran is a large polysaccharide with a fluorescent moiety, typically used as a probe to assess the leakiness of the tight junction to large molecules like dextran. The faster the movement of FITC-dextran from lumen to blood, the greater the permeability.
(FIG. 21A) There was no effect of these metabolites on TEER when applied by themselves. After 48 h, the barrier was disrupted by the toxin of a common “bad” bacteria Clostridium difficile (Cdiff). TEER plummeted with this toxin (TOX, red line) compared to control (Veh, blue line). […] (FIG. 21A)

[2] = test system: Tff3 and Lyz1 (goblet and Paneth cells); assay: Organoids: goblet and Paneth cell transcripts (Tff3, Lyz1) and cell numbers; format: cell-based, mouse; conditions: enteroids
Protocol: (§1) We had 2 series of metabolite-treated organoid experiments, i.e., 1) organoid from conventional C57BL6 mice and 2) Ocln KO and littermate WT control as a gift from Prof. Jerrold Turner (Harvard University). […] Seeding is designated as day 0. On day 3 of culture, the existing media in the wells were completely removed before adding treatments. LPS (1 μg/mL) with or without metabolites, i.e., IPA (0.1 mM) (Li et al., 2021), IAM (200 μM) (Vyhlidalova et al., 2020), MNA (12 ng/ml) (Liu et al., 2015), CARN (20 mM) (Boldyrev et al., 2013) or ASA (1 μM) (Erez et al., 2011) were each added in CCM at known physiological concentrations, incubated for 48 hours, thereafter, organoid was harvested for RNA extraction, and paraformaldehyde fixation for immunostaining.
(§2) Total RNA was extracted from the intestinal organoids using a commercially available kit (RNeasy Microkit; Qiagen, MD, Cat. #74004) following manufacturer's instructions. mRNA samples were converted to cDNA using Bio-Rad's iScript Reverse Transcription Supermix for RT-qPCR (Bio-Rad Laboratories, Hercules, CA, Cat. #1708840). cDNA was then used for RT-qPCR (Mx3000P. Stratagene, La Jolla, CA) to analyze several genes using Maxima SYBR Green qPCR Master Mix (Thermo Fisher Scientific, Waltham, MA) and primers (Integrated DNA Technologies, Coralville, IA). Thermal profile for three-step cycling was 10 min at 95° C. for initial denaturation; then 40 cycles of 15 sec at 95° C. for denaturation, 30 sec at 65° C. for annealing, and 30 sec at 75° C. for extension. Primers used are as follows: β-actin (Actb), forward 5′-[…]-3′ (SEQ ID NO: 5), reverse 5′-[…]-3′ (SEQ ID NO: 6); ZO-1 (Tjp1), forward 5′-[…]-3′ (SEQ ID NO: 7), reverse 5′-[…]-3′ (SEQ ID NO: 8), Ocln, forward 5′-[…]-3′ (SEQ ID NO: 9), reverse 5′-[…]-3′ (SEQ ID NO: 10); Lyz1, forward 5′-ATGGCTACCGTGGTGTCAAG-3′ (SEQ ID NO: 11), reverse 5′-CGGTCTCCACGGTTGTAGTT-3′ (SEQ ID NO: 12); Tff3, forward 5′-TAATGCTGTTGGTGGTCCTG-3′ (SEQ ID NO: 13), reverse 5′-CAGCCACGGTTGTTACACTG-3′ (SEQ ID NO: 14). All samples were normalized to β actin expression. Gene expression levels are depicted as fold change relative to the control group.
(§3) Immunocytochemistry followed earlier work (Pearce et al., 2018). Briefly, organoids were extracted from Matrigel by using cell recovery solution (Corning, Cat. No. 354253), processed then fixed in 4% paraformaldehyde for 15 min and dehydrated with 70% ethanol and kept in 4° C. until embedded in paraffin. On the day of embedding, organoids were gently spun down to a pellet (250 g for 5 min), then the supernatant was removed, the pellet resuspended in agarose and embedded in paraffin. […]

ZO-1 (Tjp1) and Ocln = assay: Intestinal organoids treated with LPS and metabolites: tight junction (TJ) expression, RT-qPCR and immunostaining; format: cell-based, mouse
Protocol: Intestinal organoids were isolated as previously described (Das et al., 2015; Pearce et al., 2018). Briefly, crypts were isolated from small intestine of conventional house C57BL/6 male mice (Taconic Laboratories, Hudson, NY) by shaking in isolation buffer (2 mM EDTA in PBS), then, crypts were harvested, processed, and suspended in crypt culture medium (CCM), which consisted of advanced DMEM/F12 (Life Technologies, Carlsbad, CA) supplemented with serum-free B27 (1:50; Life Technologies), N2 (1:100; Life Technologies), N-acetylcysteine (1 mM; Sigma-Aldrich, St. Louis, MO), recombinant murine epithelial growth factor (EGF, 50 ng/ml; Peprotech, Rocky Hill, NJ), Noggin (100 ng/ml; Peprotech), R-Spondin (500 ng/ml; Peprotech), Glutamax-I supplement (1:100; Life Technologies), penicillin/streptomycin (500 μg/ml; Life Technologies), and HEPES ([…]; Life Technologies). Crypts were resuspended in 70% Matrigel (density ˜450 crypts per dome, 2 domes per well in 24-well plate) and allowed to solidify at 37° C. for 20 min. CCM (1.5 mL) was then added to each well. Cultures were incubated in a humidified incubator at 37° C., and CCM was changed daily. Intestinal organoid treatment with LPS and metabolites
as §1, §2, §3

Row | SMILES | TEER, indole metabolites (FIG. 22A) [1] | integrated TEER (area under the curve, FIG. 21B) [1] | other results
1 | N#CCc1c[nH]c2ccccc12 [Indole-3-acetonitrile] | clearly protective against TOX-induced decreases in TEER | – | –
2 | O=C(O)c1c[nH]c2ccccc12 [Indole-3-carboxylic.acid, indole-3-carboxylic acid] | clearly protective against TOX-induced decreases in TEER | – | –
3 | O=C(O)CCc1c[nH]c2ccccc12 [Indole-3-propionic.acid, indole-3-propionic acid] | clearly protective against TOX-induced decreases in TEER | – | goblet and Paneth cell transcripts and cell numbers [2]: reduced goblet and Paneth cell transcripts as well as cell numbers; gene expression of Ocln (ZO-1 (Tjp1) and Ocln; ex vivo, in the presence of the barrier disruptor): increased gene expression of Ocln; TJ expression at the protein and mRNA levels (ZO-1 (Tjp1) and Ocln; in the presence of LPS (1 μg/mL), 48 hr): increased TJ expression
4 | O=C(O)C(O)Cc1c[nH]c2ccccc12 (stereo not shown) [Indolelactic.acid, indole-3-lactic acid] | clearly protective against TOX-induced decreases in TEER | – | –
5 | NC(=O)c1ccc[n+]([C@@H]2O[C@H](COP(=O)([O-])OP(=O)(O)OC[C@H]3O[C@@H](n4cnc5c(N)ncnc54)[C@H](O)[C@@H]3O)[C@@H](O)[C@H]2O)c1 [NAD] | – | protected the cells from barrier disruption by TOX | –
6 | NC(=O)c1cccnc1 [NAM, nicotinamide] | – | protected the cells from barrier disruption by TOX | –
7 | NC(=O)c1ccc[n+]([C@@H]2O[C@H](CO)[C@@H](O)[C@H]2O)c1 [Nicotinamide.riboside, nicotinamide riboside] | – | protected the cells from barrier disruption by TOX | –

From patent US20240350456A1, “COMPOSITIONS AND METHODS FOR DIAGNOSING AND TREATING INFLAMMATORY CONDITIONS” (RUTGERS, THE STATE UNIVERSITY OF NEW JERSEY, priority 2023, published 2024)
